Laboratory results: PMC12040169 (PLOS Biology, 2025)

test: in vitro; conditions: human, hela cells, % viability

SMILES | viability at 28.5 h, 10 µM
Cn1cc(CNC(=O)Nc2cc(C(=O)N3CCOCC3)ccc2Cl)cn1 [CBK307080] | 83.4%
CN(Cc1ccncn1)C(=O)c1cn(CC2CCCO2)nn1 (centres unmarked) [CBK307081] | 108%
Cc1nc2c(c(N(C)C)n1)CCN(C(=O)c1cnn(C(C)C)c1)C2 [CBK307083] | 109%
Cn1nnnc1SCCNC(=O)Nc1ccc(CN2CCOCC2)cc1 [CBK307084] | 97.4%
Cn1nccc1CCNS(=O)(=O)c1cccc(C(=O)N2CCCCC2)c1 [CBK307086] | 89.2%
Cc1nn(CC(=O)N(C)CCCc2nccn2C)c(=O)c2ccccc12 [CBK307087] | 92.2%
CCC(NC(=O)CCc1cc2n(n1)CCNC2)c1cn2cccnc2n1 (centres unmarked) [CBK307090] | 87.1%
CN(C)c1nc(N(C)CC2(CO)CCOCC2)ncc1F [CBK307091] | 110%
CC1(C)CC(NC(=O)c2cc(Cn3ccc4ccccc43)[nH]n2)CCO1 (centres unmarked) [CBK307092] | 87.7%
O=C(N[C@H]1C[C@H](c2nnc(CO)n2C2CC2)C1)c1ccc(Cl)c(F)c1 [CBK307093] | 91.4%
CCCn1cc(CNC(=O)c2cccc(S(=O)(=O)N3CCCC3)c2)cn1 [CBK307095] | 78.5%
Cc1cc(F)ccc1C(=O)NCC1CCN(c2cnn(C)c(=O)c2)C1 (centres unmarked) [CBK307097] | 112%
CC1CCc2c(sc(NC(=O)c3cccs3)c2C(=O)N(C)C)C1 (centres unmarked) [CBK307100] | 90.9%
COc1ccccc1CN(Cc1cccnc1)C(=O)CCn1cnnn1 [CBK307106] | 90.4%
CN(C(=O)C1CCc2nn(C)c(=O)n2C1)C1Cc2ccccc2C1 (centres unmarked) [CBK307108] | 107%
COc1cc2c(cc1-c1cn(CCc3n[nH]c(=O)[nH]3)nn1)CCC2 [CBK307112] | 98.3%
NC1CC(c2cc(NCCCc3nnc4ccccn34)ncn2)C1 (centres unmarked) [CBK307120] | 104%
CCCCC(c1cccnc1)N(C)C(=O)c1cnc(C)c(C)c1 (centres unmarked) [CBK307121] | 103%
CCCn1ncc(C(=O)N2CCN(CC3CCCN(C)C3)CC2)c1C (centres unmarked) [CBK307122] | 89.1%
CN1CCCN(c2cnn(Cc3ccc(Cl)s3)c(=O)c2)CC1 [CBK307123] | 90.8%
Cn1ccnc1CCC1CCCCN1C(=O)NCc1cccc(F)c1 (centres unmarked) [CBK307124] | 93.5%
CNC(=O)CN(C)Cc1c(C(=O)N2CCOCC2)nc2c(C)cccn12 [CBK307128] | 114%

SMILES | viability at 28.5 h, 10 µM
CC(=O)N1CCc2nc(C)nc(NCCn3cccc3)c2CC1 [CBK307130] | 83.7%
Fc1cnc(N2CCCC3(CCOC3)C2)nc1N1CCOCC1 (centres unmarked) [CBK307131] | 84.5%
CCn1c(CC2CCN(C(=O)c3ccc(C)c(C)c3)CC2)nn(C)c1=O [CBK307133] | 87.8%
Cc1ccc2c(c1)c(C(=O)N1CCn3nc(CO)cc3C1)nn2C [CBK307134] | 104%
CCN1CC2(CCC1=O)CCN(Cc1nnc(-c3cccnc3)o1)CC2 [CBK307137] | 92.6%
CCOc1cc2c(cc1CN1CCN(Cc3noc(C)n3)CC1)CCC2 [CBK307138] | 83.1%
CCOC(=O)c1cn(CC)c2cc(F)c(OCC)cc2c1=O [CBK307139] | 87.8%
CCOC(=O)c1cn(CC)c2cc(N3CCSCC3)c(F)cc2c1=O [CBK307143] | 89.8%
CCn1cc(C(=O)NN)c(=O)c2cc(F)c(N3CCCC3)cc21 [CBK307146] | 82.9%
CC(C)CC(NC(=O)c1cccnc1)c1nnc2n1CCNCC2 (centres unmarked) [CBK307149] | 89.2%
O=C(Nc1ccnn1Cc1cccs1)N1Cc2cnn(CCO)c2C1 [CBK307150] | 89.7%
CN(Cc1nc2c(s1)CCCC2)C(=O)COc1ncnc2ccccc12 [CBK307151] | 90.7%
COc1cccc2ncn(CCCc3c(C)n[nH]c3C)c(=O)c12 [CBK307153] | 82.9%
Cn1nc(CO)c2c1CCN(CC(=O)Nc1nc(C(C)(C)C)cs1)C2 [CBK307161] | 85.7%
Cn1c(N2CC[C@H](O)C2)nc2cc(C(=O)NCC3CC3)ccc21 [CBK307164] | 92.1%
CC(=O)Nc1ccc(F)c(NC(=O)NCCN2CCCOC2=O)c1 [CBK307166] | 92.8%
CCOC(=O)c1cn(CC)c2cc(N3CCCC3)c(F)cc2c1=O [CBK307169] | 101%
CCn1cc(C(=O)N2CCCC2c2nccs2)c(=O)c2ccc(C)nc21 (centres unmarked) [CBK307171] | 86.4%
CC(C)(C)NC(=O)c1nn2c(c1Br)NC(c1cccs1)CC2C(F)(F)F (centres unmarked) [CBK307175] | 84.9%
CC(C)OC(=O)c1cc2n(n1)C(C(F)(F)F)CC(c1cccs1)N2 (centres unmarked) [CBK307176] | 87.6%
CCn1nc(C(C)C)cc1C(=O)N1CC2(CCNCC2)CC1C(=O)O (centres unmarked) [CBK307179] | 90.9%
O=C(c1nn2c(c1Br)NC(c1cccs1)CC2C(F)(F)F)N1CCCC1 (centres unmarked) [CBK307180] | 88.7%

SMILES | viability at 28.5 h, 10 µM
Cc1cccc(=O)n1CCCn1cnc2nccnc2c1=O [CBK307186] | 116%
CN1CCC(OCCCn2ccnc2-c2ccccc2C(=O)O)CC1 [CBK307188] | 87%
Cc1cc(OCC(=O)N(C)C)c2c3c(c(=O)oc2c1)CCCC3 [CBK307189] | 96.3%
Cc1nn(C)c2nc(NCc3ccc(C(=O)N4CCCC4)cc3)sc12 [CBK307190] | 88.6%
Cc1cc(C)c(CNC(=O)N(C)C(C)c2ccncn2)cn1 (centres unmarked) [CBK307192] | 93.4%
COc1ccc2c(c1)cc(C(=O)NCc1cncn1CC(C)C)n2C [CBK307193] | 89.3%
COC(=O)c1ccc(NC(=O)N2CCCCC2CCn2ccnc2)cc1 (centres unmarked) [CBK307195] | 86.8%
COc1ccc2c(c1)cc(C(=O)N(C)CCCn1nc(C)cc1C)n2C [CBK307196] | 81.4%
CC(NC(=O)N(C)Cc1ccc2ccccc2n1)c1nncn1C(C)C (centres unmarked) [CBK307197] | 92.9%
CSc1nc(C(=O)NC2CCCN(c3ncccn3)C2)cs1 (centres unmarked) [CBK307198] | 98.7%
CN(C)c1ccc(-c2nc(C(F)(F)F)nn2C)cn1 [CBK307202] | 87.1%
CN1CCN(c2cnn(CCCOc3ccccc3)c(=O)c2)CC1 [CBK307203] | 100%
COc1cccc(CN2CCCC(NC(=O)c3cn4ccsc4n3)C2)c1 (centres unmarked) [CBK307204] | 81.1%
Cn1nc2n(c1=O)CC(C(=O)NCCN1CCCc3ccccc31)CC2 (centres unmarked) [CBK307206] | 93.5%
CCCc1nnc2sc(C3CCC(=O)N(CC(C)C)C3)nn12 (centres unmarked) [CBK307207] | 95.6%
COc1cccc2ncn(CCCc3nc(C)c(C)s3)c(=O)c12 [CBK307208] | 95.2%
CCCCSc1nc(N)cc(N2CCCN(C(=O)C3CCCO3)CC2)n1 (centres unmarked) [CBK307209] | 86.8%
Cn1ccnc1C(NC(=O)N1CCOc2ccc(Cl)cc2C1)C1CC1 (centres unmarked) [CBK307212] | 91%
CCCCC(c1cccnc1)N(C)C(=O)c1cc(CC)[nH]c(=O)c1 (centres unmarked) [CBK307216] | 107%
CCn1c(CC2CCN(C(=O)CCN3CCCCO3)CC2)nn(C)c1=O [CBK307217] | 95.4%
CN(CCN1CCCCC1=O)c1nccc(CCC(F)(F)F)n1 [CBK307218] | 106%
